Data set [1] can be described thus: Bulk / apparent density (m/V0). It counts as physicochemical. To be noted: prior to granulation and/or formulation. An excerpt:
It is within the ability of one of skill in the art to determine the bulk density of a compound or composition using methods generally accepted in the art. However, suitable methods include, for example, the European Pharmacopeia edition 6, Test 2.9.15 “apparent volume,” pages 285-286, EDQM, 2007, and USP 31, vol. 1 test <616> page 231-232, The United States Pharmacopeia Convention, 2008. An example of a suitable method is described below:
Apparatus: • settling apparatus capable of producing in 1 minute 250±15 taps from a height of 3±0.2 mm. The support for the graduated cylinder with its holder, has a mass of 450±5 g • a 250 ml graduated cylinder (2 ml intervals) with a mass of 220±40 g
Method: Into a dry cylinder, introduce without compacting, 100.0 g (m g) of the test substance. Secure the cylinder in its holder. Read the unsettled apparent volume (V0) to the nearest milliliter. Carry out 10, 500 and 1250 taps and read the corresponding volumes V10, V500, V1250, to the nearest milliliter. If the difference between V500 and V1250 is greater than 2 ml, carry out another 1250 taps.
Alternatively, if it is not possible to select 100.0 g, select a test sample of any mass but with a volume between 50 ml and 250 ml, measure its apparent volume, V0 as described above, and weigh the sample and specify the mass in the expression of results. Bulk/apparent density may then be determined in g/ml using the following formula: m/V0 where m is the mass in grams and V0 the unsettled apparent volume.
(§1) The granules and final compositions were evaluated for bulk and tapped density using the methods described above. Flowability was also accessed by testing the flow rate through an orifice described in USP 31, vol. 1, test <1174>, The United States Pharmacopeia Convention, 2008. The flowability was measured as the mass per time flowing through the 10 mm diameter opening of a glass funnel.

Data set [2] can be described thus: Flowability: flow rate through 10 mm orifice of a glass funnel (USP <1174>). To be noted: API before granulation. The class given is physicochemical.
Source text: It is within the ability of one of skill in the art to determine the flowability of a compound or composition using methods generally accepted in the art. However, suitable methods include but are not limited to, testing the flow rate through an orifice described in USP 31, vol. 1, test <1174>, The United States Pharmacopeia Convention, 2008, in which case, the flowability may be measured as the mass per time flowing through the 10 mm diameter opening of a glass funnel.
as §1

Molecules are shown by their SMILES.

As to `Cc1nc(Cl)c(-c2noc(-c3cc(O)c(O)c([N+](=O)[O-])c3)n2)c(C)c1Cl` [5-[3-(2,5-dichloro-4,6-dimethylpyridin-3-yl)-[1,2,4]oxadiazol-5-yl]-3-nitrobenzene-1,2-diol], the “bulk density of the API alone” value in data set [1] is given as “around 0.2 g/ml”.
For `Cc1c(Cl)c(C)[n+]([O-])c(Cl)c1-c1noc(-c2cc(O)c(O)c([N+](=O)[O-])c2)n1` [API, 2,5-dichloro-3-(5-(3,4-dihydroxy-5-nitrophenyl)-1,2,4-oxadiazol-3-yl)-4,6-dimethylpyridine 1-oxide], the figures for the “bulk density of the API alone” value in data set [1] and in data set [1] (listed as 2,5-dichloro-3-(5-(3,4-dihydroxy-5-nitrophenyl)-1,2,4-oxadiazol-3-yl)-4,6-dimeth) were < 0.1 g/mL and “less than 0.1 g/ml”, respectively. The “flow of the API alone” value in data set [2] is “no flow”.

Source of the values: patent publication US10583130B2, “Pharmaceutical formulations compromising nitrocatechol derivatives and methods of making thereof” (BIAL—Portela & Cᵃ, S.A., priority 2009, dated 2020).
